Laboratory results: the supplement of paper PMC10307832

Legend:
Assay in all cases: relative viability (nuclei count vs DMSO), 5 days (fraction); higher = more cells survive
[1] = compound: NS(=O)(=O)OC[C@@H]1C[C@@H](n2ccc3c(N[C@H]4CCc5ccccc54)ncnc32)C[C@@H]1O [MLN4924] + Cc1nc(NC(=O)N2CCC[C@H]2C(N)=O)sc1-c1ccnc(C(C)(C)C(F)(F)F)c1 [Alpelisib] (partner 2 µM)
Summary of the method: (§1)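 A single step with final 0.05% Triton X-100, 1% formaldehyde and 1 ug/ml Hoechst fixed the cells and stained nuclei 5 days after treatment. Lung cancer cell lines in 1536-well plates had been treated by pin tool the day after seeding with one drug alone or a fixed anchor-drug dose plus five library-drug doses (not always all listed) in √10 steps, and nuclei were counted on 4× images. Relative viability is the ratio of nuclei in treated wells to nuclei in vehicle wells, taken as the median of duplicate plates.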

[2] = compound: NS(=O)(=O)OC[C@@H]1C[C@@H](n2ccc3c(N[C@H]4CCc5ccccc54)ncnc32)C[C@@H]1O [MLN4924] + COc1cccc2cc(-c3nc([C@H]4CC[C@H](C(=O)O)CC4)n4ncnc(N)c34)[nH]c12 [OSI-027] (partner 0.5 µM)
Summary of the method: as §1

[3] = compound: NS(=O)(=O)OC[C@@H]1C[C@@H](n2ccc3c(N[C@H]4CCc5ccccc54)ncnc32)C[C@@H]1O [MLN4924] + C[C@@H](Oc1cc(-c2cnn(C3CCNCC3)c2)cnc1N)c1c(Cl)ccc(F)c1Cl [Crizotinib] (partner 1 µM)
Summary of the method: as §1

[4] = compound: NS(=O)(=O)OC[C@@H]1C[C@@H](n2ccc3c(N[C@H]4CCc5ccccc54)ncnc32)C[C@@H]1O [MLN4924] + COc1cc2c(Oc3ccc(NC(=O)C4(C(=O)Nc5ccc(F)cc5)CC4)cc3F)ccnc2cc1OCCCN1CCOCC1 [Foretinib] (partner 0.25 µM)
Summary of the method: as §1

Cell Line | relative viability ([1]; first compound 0.04 µM) | relative viability ([1]; first compound 0.1265 µM) | relative viability ([1]; first compound 0.4 µM) | relative viability ([1]; first compound 1.265 µM) | relative viability ([1]; first compound 4 µM) | relative viability ([2]; first compound 0.04 µM) | relative viability ([2]; first compound 0.1265 µM) | relative viability ([2]; first compound 0.4 µM) | relative viability ([2]; first compound 1.265 µM) | relative viability ([2]; first compound 4 µM) | relative viability ([3]; first compound 0.04 µM) | relative viability ([3]; first compound 0.1265 µM) | relative viability ([3]; first compound 0.4 µM) | relative viability ([3]; first compound 1.265 µM) | relative viability ([3]; first compound 4 µM) | relative viability ([4]; first compound 0.04 µM) | relative viability ([4]; first compound 0.1265 µM) | relative viability ([4]; first compound 0.4 µM) | relative viability ([4]; first compound 1.265 µM) | relative viability ([4]; first compound 4 µM)
HCC-827 | 0.893 | 0.47 | 0.595 | 0.234 | 0.159 | 0.794 | 0.558 | 0.686 | 0.151 | 0.159 | 0.836 | 0.658 | 0.61 | 0.247 | 0.178 | 0.993 | 0.591 | 0.568 | 0.238 | 0.144
HOP-62 | 0.903 | 0.627 | 0.29 | 0.0619 | 0.0676 | 0.73 | 0.565 | 0.337 | 0.0849 | 0.132 | 0.701 | 0.261 | 0.167 | 0.0427 | 0.0866 | 0.669 | 0.312 | 0.246 | 0.0894 | 0.0942
LC-2-ad | 0.834 | 0.729 | 0.41 | 0.153 | 0.0751 | 0.952 | 0.727 | 0.439 | 0.224 | 0.262 | 0.517 | 0.419 | 0.341 | 0.264 | 0.156 | 0.845 | 0.793 | 0.592 | 0.212 | 0.186
LCLC-97TM1 | 0.255 | 0.208 | 0.129 | 0.114 | 0.119 | 0.601 | 0.247 | 0.239 | 0.131 | 0.116 | 0.27 | 0.202 | 0.151 | 0.123 | 0.0984 | 0.97 | 0.424 | 0.69 | 0.127 | 0.123
LCLC-103H | 1.14 | 1.18 | 1.12 | 0.234 | 0.342 | 0.467 | 0.491 | 0.539 | 0.178 | 0.156 | 1.13 | 1.09 | 0.713 | 0.289 | 0.321 | 0.85 | 0.896 | 0.861 | 0.175 | 0.15
LK-2 | 0.991 | 0.886 | 0.667 | 0.267 | 0.299 | 0.214 | 0.214 | 0.191 | 0.202 | 0.17 | 0.222 | 0.319 | 0.321 | 0.27 | 0.236 | 1.35 | 0.676 | 0.621 | 0.265 | 0.222
LOU-NH91 | 0.804 | 1.02 | 0.855 | 0.407 | 0.476 | 0.754 | 0.857 | 0.609 | 0.411 | 0.385 | 0.706 | 0.743 | 0.652 | 0.489 | 0.398 | 0.945 | 0.952 | 0.896 | 0.539 | 0.413
LU99A | 0.418 | 0.244 | 0.299 | 0.173 | 0.153 | 0.293 | 0.315 | 0.247 | 0.196 | 0.222 | 0.555 | 0.359 | 0.351 | 0.16 | 0.151 | 0.531 | 0.365 | 0.314 | 0.188 | 0.236
